Assay results from patent US20040180915A1, “Methadone-containing compositions for parenteral administration and method of use thereof” (priority 2003, published 2004).

Key:
[1] = oral vs intramuscular; cited from earlier work
[2] = cited from earlier work
[3] = ECG/EKG comparison of QTc intervals in patients on and off treatment
Text: Applicants' also performed a comparison study involving hundreds of EKG's performed on patients treated with IV methadone versus the EKG's of patients not being treated with the IV methadone.

[4] = system: gram-positive and gram-negative bacteria; settings: cited from earlier work
microorganisms = settings: cited from earlier work
molds and yeasts = settings: relative to activity against bacteria; cited from earlier work
[5] = in vivo; cited from earlier work
[6] = cited from earlier work; remark: listed apart in the source

Compound | activity against growth of gram-positive and gram-negative bacteria [4] | pH range (optimal pH range for activity) (microorganisms) | activity against growth of molds and yeasts (molds and yeasts) | also measured
CCC(=O)C(CC(C)N(C)C)(c1ccccc1)c1ccccc1 (stereo not drawn) [methadone] | – | – | – | total analgesic effects, oral relative to same dose intramuscularly [1]: about 50%; time to appreciable concentrations in plasma ([2]; after subcutaneous injection): ≤ 10 min; time to detection in blood plasma after ingestion ([2]; oral): ≤ 30 min; QTc prolongation after switch from IV route to oral route ([3]; at least one patient): reversed; prolongation in QTc interval times ([3]; orally ingested methadone in a formulation without chlorobutanol): did not show a similar prolongation
O=C(O)c1ccccc1 [Benzoic acid] | strongly active | 2-5 | slightly weaker | –
CC(C)(O)C(Cl)(Cl)Cl [chlorobutanol] | – | – | – | half-life [5]: over 10 days
COC(=O)c1ccc(O)cc1 [Methylparaben] | strongly active | 3.0-9.5 | slightly weaker | –
Benzalkonium chloride | strongly active | 4-10 | slightly weaker | –
CCCOC(=O)c1ccc(O)cc1 [Propylparaben] | – | 3.0-9.5 | – | –
CCCCOC(=O)c1ccc(O)cc1 [Butylparaben] | – | 3.0-9.5 | – | water solubility [6]: about 0.2%
Cetrimide | strongly active | 4-10 | slightly weaker | –
C/C=C/C=C/C(=O)O [Sorbic acid] | strongly active | <6.5 | slightly weaker | –
